Measured values: paper PMC12781162, “Human Protein Z as the Second Known Heme‐Binding Protein from the Endogenous Blood Coagulation Inhibitor System” (Chembiochem, 2025)
Where “and” joins values, the source holds several entries; their conditions need not be identical. Equal entries are not always repeated. Entries after “also recorded” stand apart in the source; their conditions may differ. Where two headings read alike, the source gives them in different places. Each block holds one molecule with its values, some of them ahead of it. No end group written: not given here. Cys(S-Me) = S-methylated cysteine

Tests used:
[1] = biological target: T1, Human protein Z (PZ) (Homo sapiens, UniProt P22891); experiment: SPR binding of porphyrins to immobilized PZ (single-cycle kinetics); settings: tested concentration range 187.5 nM – 12 µM
T1 construct: purchased CellSystems GmbH HCPZ-0220
Experimental: (§1) SPR experiments were conducted on a Biacore 8K instrument (Cytiva) to investigate the interaction of PZ with heme, as established before.^[ [19] ^, [35] ^, [37] ^, [43] ^] In brief, PZ (10 µg mL^−1) was dissolved in 10 mM sodium acetate buffer (pH 3.5) and immobilized onto a CM5 sensor chip via standard amine coupling, resulting in a final immobilization level of 767 RU. Heme (stock solution in 30 mM NaOH) was further diluted in running buffer (10 mM HEPES, 150 mM NaCl, and 0.05% Tween 20, pH 7.4). The same was performed with zinc (II) protoporphyrin IX and protoporphyrin IX (Frontier Scientific). Binding kinetics were assessed by injecting seven increasing concentrations of heme (187.5–12,000 nM) in a single‐cycle kinetics format at 25 °C and a flow rate of 30 µL min^−1. Data analysis was performed by global fitting using Biacore Insight Evaluation Software, version 3.0.12.15655 (Cytiva).

[2] = biological target: T2, thrombin (Homo sapiens, UniProt P00734); experiment: SPR binding of porphyrins to immobilized thrombin; design: human α‐thrombin (HCT‐0020); purchased CellSystems GmbH HCT-0020
Experimental: as §1
Figure S7. Heme binds to thrombin. For SPR analysis, thrombin (10 µg/ml) was dissolved in 10 mM sodium acetate buffer (pH 6.0) and immobilized onto a CM5 sensor chip via standard amine coupling, resulting in a final immobilization level of 1826.1 RU. Binding kinetics were assessed by injecting six increasing concentrations of heme (187.5 – 6,000 nM) in a single-cycle kinetics format at 25°C and a flow rate of […]
transient nature of heme binding to thrombin. […]

[3] = design: method as in PMID 27584039; settings: read-out: K D (PZ interaction with phospholipid surfaces via Gla domain); cited from earlier work
[4] = biological target: PZ-dependent protease inhibitor (ZPI); design: method as in PMID 22786881, PMID 24960590; settings: read-out: K D (PZ interaction with ZPI via peptidase-like domain); cited from earlier work
[5] = biological target: thrombin; design: method as in PMID 2040612; settings: read-out: K D (PZ direct binding to thrombin); cited from earlier work
[6] = Substrate control of the chromogenic assay without thrombin; type: biochemical; settings: no thrombin; heme 1 – 1000 nM, PZ 10 nM; thrombin = 100 %
Experimental: Herein, an earlier established chromogenic thrombin amidolytic activity assay system was thus used, inspired by Hogg and Stenflo.^[ [19] ^, [28] ^] PZ (final concentration: 10 nM) was first incubated for 30 min with different heme concentrations (final concentrations: 1–1000 nM). Afterward, the heme–PZ mixture was incubated with thrombin for 10 min and the PZ–thrombin mixture (50 µL; final thrombin concentration: 15 nM) was transferred onto a 96‐well plate (Greiner Bio‐One GmbH). Finally, 5 µL of the substrate solution (H‐D‐Phe‐Pip‐Arg‐pNA x 2 HCl (S‐2238); final concentration: 273 µM) was added. Immediately, kinetic measurements at 405 nm were started, using an Infinite 200 Pro spectrophotometer. Heme only, thrombin only, and PZ‐heme only served as controls. For evaluation, the thrombin activity was determined as the change of absorbance per second and always normalized against the basal thrombin activity without PZ. Data were analyzed as the mean of triplicate and the IC50 was calculated by nonlinear regression (GraphPad Prism, version 10.5.0). […]
thrombinheme (0 nM)heme (1 nM) thrombin heme (3.16 nM)heme (10 nM)heme (31.6 nM)heme (100 nM)heme (316 nM)heme (1000 nM)PZ+heme (0 nM)PZ+heme (1 nM) PZ+heme (3.16 nM)PZ+heme (10 nM)PZ+heme (31.6 nM)PZ+heme (100 nM)PZ+heme (316 nM)PZ+heme (1000 nM)
Figure S5. […]

[7] = tested on: T3, human α-thrombin; experiment: Chromogenic thrombin amidolytic activity assay (S-2238); type: biochemical
T3 construct: human α‐thrombin (HCT‐0020); purchased CellSystems GmbH HCT-0020
Experimental: Herein, an earlier established chromogenic thrombin amidolytic activity assay system was thus used, inspired by Hogg and Stenflo.^[ [19] ^, [28] ^] PZ (final concentration: 10 nM) was first incubated for 30 min with different heme concentrations (final concentrations: 1–1000 nM). Afterward, the heme–PZ mixture was incubated with thrombin for 10 min and the PZ–thrombin mixture (50 µL; final thrombin concentration: 15 nM) was transferred onto a 96‐well plate (Greiner Bio‐One GmbH). Finally, 5 µL of the substrate solution (H‐D‐Phe‐Pip‐Arg‐pNA x 2 HCl (S‐2238); final concentration: 273 µM) was added. Immediately, kinetic measurements at 405 nm were started, using an Infinite 200 Pro spectrophotometer. Heme only, thrombin only, and PZ‐heme only served as controls. For evaluation, the thrombin activity was determined as the change of absorbance per second and always normalized against the basal thrombin activity without PZ. Data were analyzed as the mean of triplicate and the IC50 was calculated by nonlinear regression (GraphPad Prism, version 10.5.0).

[8] = tested on: thrombin; design: method as in PMID 2040612; settings: PZ:thrombin ratios of ≈1:9 to ≈5:1; cited from earlier work
[9] = biological target: T4, PZ (Homo sapiens, UniProt P22891); experiment: aPTT-based one-stage clotting assay: anticoagulant function of PZ against FXa in the presence of heme; type: biochemical
T4 construct: purchased CellSystems GmbH HCPZ-0220 (PZ); HCXA-0060 (FXa)
Experimental: To estimate an effect on molecular level, the structure of the PZ–ZPI complex (PDB: 3H5C^[ [42] ^]) was first inspected with heme attached to PZ. The anticoagulant function of PZ was then analyzed in the presence of heme by a one‐stage clotting assay, which was inspired by previous work from us and others.^[ [19] ^, [27] ^] The aPTT‐based assay was performed with the ball coagulometer KC 4 A (Amelung, Lemgo, Germany). PZ (320 nM) was preincubated with different concentrations of heme (0–100 µM) for 30 min in 1x PBS, pH 7.4. Afterward, 50 µL of the PZ–heme mixture was incubated with 50 µL of Actin FSL, 50 µl CaCl2 (30 mM), and 50 µL FXa (0.5 nM) at 37 °C for 3 min. Finally, 50 µL citrated pooled plasma was added and the clotting time was automatically recorded. The following mixtures served as controls: 1) 50 µL PBS‐heme + 50 µL Actin FSL + 50 µL CaCl2 + 50 µL FXa + 50 µL citrated plasma, 2) 50 µL PBS‐heme + 50 µL Actin FSL + 50 µL CaCl2 + 50 µL PBS + 50 µL citrated plasma, 3) 50 µL PZ–heme + 50 µL Actin FSL + 50 µL CaCl2 + 50 µL PBS + 50 µL citrated plasma, 4) 50 µL PZ‐PBS + 50 µL Actin FSL + 50 µL CaCl2 + 50 µL FXa + 50 µL citrated plasma, 5) 50 µL PZ‐PBS + 50 µL Actin FSL + 50 µL CaCl2 + 50 µL PBS + 50 µL citrated plasma, 6) 50 µL PBS + 50 µL Actin FSL + 50 µL CaCl2 + 50 µL FXa + 50 µL citrated plasma, and 7) 50 µL PBS + 50 µL Actin FSL + 50 µL CaCl2 + 50 µL PBS + 50 µL citrated plasma. Final concentrations in the approach were 6 mM CaCl2, 0–20 µM heme, 32 nM and PZ, 0.1 nM FXa. Data were normalized against the clotting time of citrated plasma only (control (7)) and evaluated as the mean of triplicates. The IC50 was determined by fitting the curves with nonlinear regression (GraphPad Prism, version 10.5.0).

[10] = UV/vis spectroscopic interaction studies of PZ-derived peptides with heme; type: binding; settings: peptide 10 µM; for heme binding on peptide level: heme 0.4-40 µM; for Kd: read-out: K D (heme-binding affinity of peptide)
Experimental: Heme binding to PZ‐derived peptides 1 –5 was analyzed by UV/vis spectroscopy, as previously reported for other protein‐derived peptides as well.^[ [18] ^, [19] ^, [35] ^, [43] ^, [44] ^] In brief, each peptide (10 µM) was incubated for 30 min with heme in 100 mM HEPES buffer (pH 7.0) for 30 min. Absorbance spectra were recorded in the range of 300–600 nm on a Infinite 200 Pro spectrophotometer. Difference spectra were generated by subtraction of the single absorbance data of heme and the peptide, respectively, from the data of the heme–peptide complex. Difference spectra were plotted with GraphPad Prism, version 10.5.0. K D values were calculated using the equation from Pîrnău and Bogdan (2008).^[ [45] ^]

[11] = biological target: ZPI (Homo sapiens) (UniProt Q9UK55); settings: cited from earlier work
Chain of ZPI (Homo sapiens) (Q9UK55 22-444): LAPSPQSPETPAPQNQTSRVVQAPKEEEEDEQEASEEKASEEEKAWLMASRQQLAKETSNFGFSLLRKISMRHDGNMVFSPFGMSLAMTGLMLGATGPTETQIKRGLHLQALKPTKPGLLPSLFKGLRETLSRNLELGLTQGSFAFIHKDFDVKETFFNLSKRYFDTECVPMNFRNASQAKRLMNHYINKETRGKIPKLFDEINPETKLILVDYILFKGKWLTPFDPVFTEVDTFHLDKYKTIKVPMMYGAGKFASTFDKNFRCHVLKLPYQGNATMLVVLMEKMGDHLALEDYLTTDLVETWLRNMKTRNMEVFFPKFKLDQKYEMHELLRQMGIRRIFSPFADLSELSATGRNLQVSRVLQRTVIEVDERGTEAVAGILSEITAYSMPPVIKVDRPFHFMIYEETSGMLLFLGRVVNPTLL

[12] = biological target: T2, thrombin; settings: cited from earlier work
[13] = 100 mM HEPES pH 7.0, 30 min, stoichiometry 1:1

Molecule: C=CC1=C(C)c2cc3[nH]c(cc4nc(cc5[nH]c(cc1n2)c(C)c5CCC(=O)O)C(CCC(=O)O)=C4C)c(C)c3C=C [protoporphyrin IX]
binding to PZ [1]: did not bind
Kd ([2]; heterogeneous ligand model, read-out: KD1 (porphyrin binding to thrombin)): 150 nM
Kd ([2]; read-out: KD2 (porphyrin binding to thrombin)): 2200 nM

Molecule: PZ: Human protein Z, vitamin-K-dependent glycoprotein, anticoagulant cofactor; obtained from CellSystems GmbH
Kd [3]: ~48000 nM
Kd [4]: ~1 nM
Kd [5]: 110 to 150 nM
relative amidolytic activity toward substrate S-2238 [6]: ~ 0%
amidolytic activity of thrombin at highest PZ concentration ([7]; PZ 1 µM, ratio ≈30:1 PZ:thrombin): ≈ 140%
inhibitory effect toward the amidolytic activity of thrombin ([7]; PZ:thrombin ratios of 1:15 to 21:1, without heme): ≈ 20% and 20%
remaining amidolytic activity of thrombin ([7]; PZ:thrombin ratios of 1:30 to ≈10:1, thrombin 30 nM): ≈ 5080%
inhibition of the activity of thrombin in the presence of PZ [8]: ≈ 20%
impact alone on the procoagulant function of FXa or on clotting of pure plasma (aPTT) ([9]; controls, heme 0.06 – 20 µM, PZ 32 nM, FXa 0.1 nM): not significantly influenced; also recorded: did not exert any significant impact
effect of PZ on the procoagulant effect of FXa ([9]; without heme): block the procoagulant effect of FXa completely

heme binding on peptide level [10]: did not bind heme
Molecule: VTREHRGSW [Peptide 5, PZ-derived peptide around H321, positions 317 - 325]

Kd [10, 13]: 1040 ± 360 nM
heme binding on peptide level [10]: bound heme
Molecule: FWRRYKGGS [Peptide 1]

Kd [10, 13]: 1130 ± 500 nM
heme binding on peptide level [10]: bound heme
Molecule: C(Me)SLLHRNITVKTYFNRT ({Cys(S-Me)}-SLLHRNITVKTYFNRT) [Peptide 3, PZ-derived peptide around H183/Y191 with methylated cysteine, positions 179 - 195]

K D (heme-binding affinity of peptide) [10, 13]: n.b.
heme binding on peptide level [10]: did not bind heme
Molecule: AKNEC(Me)HPERT [Peptide 2]

Molecule: Protein Z peptidase-like domain (from UniProt P22891)
Kd [11]: 1 nM

binding to PZ [1]: did not bind
Molecule: C=CC1=C(C)c2cc3[n-]c(cc4[n-]c(cc5nc(cc1n2)C(C)=C5C=C)c(C)c4CCC(=O)O)c(CCC(=O)O)c3C.[Zn+2] [zinc protoporphyrin IX]

Kd [10, 13]: 790 ± 360 nM
heme binding on peptide level [10]: bound heme
Molecule: IKITHVHVHMRYD [Peptide 4, PZ-derived peptide around H206/H208/H210, positions 202 - 214]

Molecule: Protein Z (from UniProt P22891)
Kd [12]: 130 nM
